Consider 4 molecules from patent US5597829A, “Lactone stable formulation of camptothecin and methods for uses thereof” (priority 1994, dated 1997).

In data set [1] the test system is xenografts of human tumors. The note with it: nude mice; cited from earlier work.
For data set [2] the following is noted: cited from earlier work.
For data set [3] the following is noted: cited from earlier work. The source holds these as a separate data set.
A short description of data set [4]: Phase I pharmacokinetics: conversion of CPT-11 into HECPT. In kind it is in vivo, human. The note with it: per/mg basis, from mean peak plasma concentrations.
For data set [5] the following is noted: cited from earlier work. This is another data set of the same source.
For data set [6] the following is noted: cited from earlier work. The source holds these as a separate data set.
The conditions of data set [7]: mice; cited from earlier work.
A further data set deals with LD1210 leukemia. The note with it: 10-100 mg/kg intraperitoneally; cited from earlier work.
The test system of data set [8] is topoisomerase I in P388 cells. The note with it: cited from earlier work.
For the next data set, the system named is MOLT3 cells. The note with it: cited from earlier work.
A further data set relates to P388 tumor. The note with it: intermittent bolus (days 1, 5, and 9), i.p.; cited from earlier work.
For data set [9] the following is noted: similar solutions; cited from earlier work.
The mark [10] stands for this setting: Masuda et al, refractory or relapsed small cell lung cancer, 100 mg/m^2 weekly.
Setting [11] is: Negoro et al, small cell lung cancer, 100 mg/m^2 weekly, 41 pts.
The mark [12] stands for this setting: Shimada et al, colon cancer, 100 mg/m^2 /week or 150 mg/m^2 /Q 2 wks.
Where [13] appears, read: Takeuchi et al, cervical cancer, 69 pts.

Entries after “also recorded” stand apart in the source; their conditions may differ. Like-named read-outs stand apart in the source and are kept apart here.

As to `CCc1c2c(nc3ccc(OC(=O)N4CCC(N5CCCCC5)CC4)cc13)-c1cc3c(c(=O)n1C2)COC(=O)[C@]3(O)CC` [CPT-11, 7-Ethyl-10-[4-(1-piperidino)-1-piperidino]Carbonyloxy-Camptothecin], the “dependence of tumor sensitivity on ability to produce HECPT” value in data set [1] was “independent of their ability to produce HECPT”. The “conversion of CPT-11 to HECPT” value in data set [2] (5-day continuous intravenous infusion) is “saturable process”. Further, the “Fractional amount of lactone species, CpMax based” value in data set [3] (single dose I.V., 50 mg/m^2) is given as 0.51; in data set [3] (single dose I.V., 80 mg/m^2) it was 0.44; in data set [3] (single dose I.V., 100 mg/m^2) it was 0.53; in data set [3] (single dose I.V., 125 mg/m^2) it was 0.55; in [3] (single dose I.V., 150 mg/m^2) it was 0.42; in data set [3] (single dose I.V., 180 mg/m^2), 0.42. In data set [3] (single dose I.V.), the “overall fractional concentration of the lactone species over dose range” value was “fairly constant”. Moreover, the “administered CPT-11 converted into HECPT” value in data set [4] was 1.5% to 9. In addition, the “Toxicity (* dose limiting)” value in [5] (Clavel et al, 90 min QDx3 Q21 days, 115 mg/m^2 /d (33-115), 37 pts) was “Neutropenia*; also recorded: diarrhea; also recorded: nausea; also recorded: vomiting; also recorded: alopecia”; in data set [5] (Culine et al, 90 min Q21 days, 150 mg/m^2 /wk (50-150), 59 pts) it was “Neutropenia*; also recorded: diarrhea*; also recorded: vomiting; also recorded: alopecia; also recorded: fatigue; also recorded: stomatitis”; in data set [5] (Negoro et al, 30 min infusion weekly, 100 mg/m^2 (50-150), 17 pts) it was “Neutropenia* and Diarrhea* and N/V and alopecia and liver”; in data set [5] (Ohe et al, 120 hr CI Q3 wks, 40 mg/m^2 /d (5-40), 36 pts), “Diarrhea*; also recorded: nausea; also recorded: vomiting; also recorded: thrombocytopenia; also recorded: anemia; also recorded: liver”; in data set [5] (Rothenberg et al, QWx4 Q42 days, 180 mg/m^2 /wk (50-180), 32 pts) it was “Diarrhea*; also recorded: Neutropenia; also recorded: nausea; also recorded: vomiting; also recorded: alopecia”; in [5] (Rowinsky et al, 90 min infusion Q21 day, 240 mg/m^2 (100-345), 32 pts), “Neutropenia* and vomiting and diarrhea and abd. and flushing”. Besides, the “partial responses (PR)” value in data set [5] (Clavel et al, Breast, 37 pts) was 1 PR; in data set [5] (Clavel et al, Mesothelioma, 37 pts), 1 PR; in data set [5] (Culine et al, cervix, 59 pts) it was 1 PR; in data set [5] (Culine et al, esophagus, 59 pts), 1 PR; in data set [5] (Culine et al, ovarian, 59 pts), 1 PR; in data set [5] (Culine et al, renal, 59 pts) it was 1 PR. The “partial responses (PR)” value in data set [5] (Negoro et al, NS CLC, 17 pts) is listed as 2 PRs; in [5] (Rothenberg et al, Colon Ca, 32 pts), 2 PRs; in data set [5] (Rowinsky et al, Cervix Ca, 32 pts) it was 1 PR; in data set [5] (Rowinsky et al, Colon Cancer, 32 pts), 1 PR. In data set [5] (Ohe et al, 36 pts), the “responses by tumor type” value was “None”. Besides, the “major reported, dose-limiting toxicities” value in [5] (Phase I and Phase II trials) is “Neutropenia and diarrhea”. Further, the partial responses in [6] (Fukuoka et al, untreated non small cell lung cancer, 100 mg/m^2) was 23/72; in data set [6] (setting [10]), 7/15; in data set [6] (setting [11]), 7 PRs; in data set [6] (setting [12]), 6/17; in data set [6] (setting [13]), 8 PR. Moreover, the “Response Rate” value is 47% in [6] (setting [10]); 33.3% in data set [6] (setting [11]); 25 % RR in [6] (Ohno et al, leukemia/lymphoma, 20 mg/m^2 bid x7); 46% in [6] (setting [12]). Also, the values for the complete responses in [6] (setting [11]) and in data set [6] (setting [13]) were 2 CRs and “SCR”, respectively. Further, the N/V is 61.5% in data set [6] (Negoro et al, small cell lung cancer); 35% in data set [6] (Shimada et al, 17 pts); 51% in data set [6] (Takeuchi et al, cervical cancer). Further, in data set [6] (Ohno et al, 62 pts), the Gastrointestinal toxicity is listed as 76%. Further, the “Reported Toxicities” value in [6] (Ohno et al, 62 pts) is “Thrombocytopenia”. In addition, in [6] (Ohno et al, leukemia/lymphoma, 40 mg/m^2 Q0x5), the partial response rate is recorded as 34 % PR. The Response result in data set [6] (Ohno et al, leukemia/lymphoma, 200 mg Q3) is on record as “No resp”. For the same molecule, the “Response Rate (RR)” value in data set [6] (setting [13]) is given as 23.6%. For the same molecule, in data set [6] (in vivo), the Alopecia is listed as 38.1%. For the same molecule, the Diarrhea in [6] (in vivo) is reported as 39.1%. The alopecia in [6] (in vivo) is 40.0%. Moreover, the pneumonitis in data set [6] (in vivo) was 12.5. Besides, the “plasma concentration of HECPT after CPT-11 compared to after HECPT” value in [7] is listed as “maintained longer after CPT-11 administration than after treatment with HECPT”.
Take `CCc1c2c(nc3ccccc13)-c1cc3c(c(=O)n1C2)COC(=O)[C@]3(O)CC` [ECPT, 7-ethyl camptothecin]: the “T/C (treated/control) ratios” value with LD1210 leukemia is recorded as “inferior to that of CPT-11 administration under the same conditions”.
Turning to `CCc1c2c(nc3ccc(O)cc13)-c1cc3c(c(=O)n1C2)COC(=O)[C@]3(O)CC` [HECPT, 10-hydroxy 7-ethyl camptothecin], the “T/C (treated/control) ratios” value in the data set on LD1210 leukemia is “inferior to that of CPT-11 administration under the same conditions”. In addition, in data set [8], the “greater inhibitory activity than CPT-11 against topoisomerase I” value is on record as 3600 fold. The “more potent than CPT-11 in generating single-strand DNA breaks” value with MOLT3 cells is “approximately 1000 fold”. Moreover, in data set [2] (human subjects), the “correlation of HECPT pharmacokinetics with dose or of CPT-11 pharmacokinetics with toxicity” value is “lack of correlation”. The “overall fractional concentration of the lactone species over dose range” value in data set [3] (in vivo, iv) is reported as “fairly constant”. The “anti-tumor activity compared to CPT-11” value in the data set on P388 tumor is “little anti-tumor activity compared to CPT-11”.
As for `COc1cc([C@@H]2c3cc4c(cc3[C@@H](O[C@@H]3O[C@@H]5CO[C@@H](C)O[C@H]5[C@H](O)[C@H]3O)[C@H]3COC(=O)[C@H]23)OCO4)cc(OC)c1O` [etoposide], the “bioavailability following oral administration relative to intravenous” value in data set [9] is “substantially equivalent”.
